Measured values reported in patent US20220296610A1, “COMPOSITIONS AND METHODS FOR TREATMENT OF INFECTION AND NOVEL COSMECEUTICAL PREPARATIONS” (priority 2017, published 2022).
Where “and” joins values, the source holds several entries; their conditions need not be identical. Equal entries are not always repeated. Entries after “also recorded” stand apart in the source; their conditions may differ.

Tests used:
canine cancer patients = experiment: Inflammation and infection after repeated intralesional injections in dogs; assay type: in vivo, dog; conditions: intratumoral treatment of canine malignancies
Text: FIGS. 3A-D show the effects of intratumoral treatment of NVX-207 in various spontaneously arising canine malignancies (before and after pictures). […] FIGS. 3B-D show NVX-207 treatment effects in a canine mammary carcinoma and two separate cases of soft tissue sarcoma, respectively. […] Microbial infections (with bacteria, fungi, viruses or protozoa) usually almost invariably accompany multiple injections under similar non-sterile conditions, because the coat of the animal cannot be efficiently sterilized. This in turn leads to unwanted treatment interruptions.
FIGS. 3B-D show NVX-207 treatment effects in a canine mammary carcinoma and two separate cases of soft tissue sarcoma, respectively. […] Microbial infections (with bacteria, fungi, viruses or protozoa) usually almost invariably accompany multiple injections under similar non-sterile conditions, because the coat of the animal cannot be efficiently sterilized. This in turn leads to unwanted treatment interruptions.
As noted above, strong evidence for an antibacterial activity of NVX-207 also comes from the canine cancer treatments. Dogs were treated over several months by repeated intralesional and peritumoral injections of NVX-207. […] This is highly unusual, since intralesional treatments under the same conditions are usually associated with a high incidence of serious local soft tissue infections leading to treatment interruptions. […]

human fibroblasts = experiment: Survival of fibroblast cultures at 80% and 30% confluency; assay type: cell-based; conditions: 2.5 μM; 30% vs 80% confluency
Procedure: (§1) All cells were treated with 2.5 μM NVX-207. Percentage (means±S.E., n=3) of control-treated cells are given. […] Mean survival in NVX-207 treated fibroblasts at 80% confluency was 92% (S.E.=3.8) versus 3.8% mean survival (S.E.=0.4) at 30% confluency. […] HUVECs, keratinocytes and fibroblast cells were obtained from Lonza GmbH (Wuppertal, Germany) and cultivated according to the manufacturer's instructions.
(§2) The IC50 value of betulinic acid in human keratinocytes was recently determined to be ˜5.0 μg/ml (Tino Galgon al., Exp Dermatol. 14:736-43, 2005), while the IC50 of NVX-207 is ˜0.7 μg/ml. Consequently, the IC50 value of NVX-207 was almost 10-fold lower compared to betulinic acid on a molar basis. […] Under normal physiological circumstances, the endothelium, as well as fibroblasts and keratinocytes of the tissue like normal skin, show relatively low turn-over and limited cell divisions to maintain tissue integrity. […] Angiogenesis also plays a role in the pathogenesis of rosacea and a topical angiogenesis inhibitor (dobesilate) for treatment of rosacea has been described. Local inhibition of angiogenic factors function may prevent skin angiogenesis and inflammation in rosacea and other angiogenesis-dependent skin diseases in which a dense network of new vessels is produced and inflammatory cells are present. […]

pig skin = conditions: in vivo, 2 weeks
Text: Skin areas were visually inspected every day.
Skin areas were visually inspected every day. Photographs were taken at three day intervals. […] On day 14, pigs were anesthetized with ketamine and azaperon, and euthanized by intracardial application of T61®.

Soft tissue sarcoma = experiment: Intratumoral treatment of canine cancer patient, soft tissue sarcoma; assay type: in vivo, dog; conditions: Patient #2
Procedure: (§3) A study was performed using NVX-207 on a canine squamous cell carcinoma of the nasal plane. […] Histology was confirmed by biopsy before treatment. Prior to each treatment, the dog was physically examined and routine blood counts and serum chemistry analyses were performed. Tumor measurements were obtained using callipers at each treatment. Tumor size was determined by the longest diameter of the target lesion or by calculating the mean of the longest diameters of the lesion treated. Tumor response was classified as stable (less than 50% change), partial—(decrease by >50%) or as a complete response if no palpable or visible evidence of tumor was available. Intralesional treatment of the patient comprised local infiltration of the local tumor, including 1 cm of the surrounding tissue, with NVX-207 in combination with cisplatin. […] Tumor recurrence was observed 18 months later. […] No further complications were observed.
(§4) Patients 1, 2, and 3 correspond to the dogs described above with squamous, soft tissue, and mammary carcinoma, respectively. Tumor size and tumor responses were determined as in described above. Intralesional treatment of the patients comprised local infiltration of the local tumor including 1 cm of the surrounding tissue—if applicable—with NVX-207 alone (for patients #2-#4) or in combination with cisplatin (patient #1, see also FIG. 3). […]

human keratinocytes = experiment: Survival of keratinocyte cultures at 80% and 30% confluency; assay type: cell-based; conditions: 2.5 μM; 30% vs 80% confluency
Procedure: as §1, §2

[1] = tested on: Sweat gland adenocarcinoma; experiment: Intratumoral treatment of canine cancer patient, sweat gland adenocarcinoma; assay type: in vivo, dog; conditions: Patient #4, NVX-207 alone 10 mg/ml in 2-hydroxypropyl-γ-cyclodextrin
Procedure: as §3, §4

[2] = tested on: canine basal cell carcinoma; assay type: in vivo, dog
Text: Differential diagnoses included virus induced lesions such as warts which are caused by papillomaviruses, and are thus an example of anti-microbial/anti-viral activity.

[3] = tested on: bacteria obtained from the skin surface of an individual; experiment: Filter disk growth inhibition on LB-agar plates; assay type: cell-based
Procedure: 10 mm filter disks (numbered 1 to 4) were soaked in 10 μl of 10.0, 5.0, 2.5, and 1.25 mg/ml of NVX-207, respectively, and placed on LB-Agar plates on which a skin bacterial isolate had been plated. 15 ml of LB/Agar was used for pouring one plate. Control disks were soaked in 10 μl of the corresponding solvent and paced in the center of the plates. LB-Agar plates were then cultivated over night at 30° C. and bacterial growth was monitored by comparing growth inhibition zones around the soaked disks. […]
Antibacterial effects of NVX-207 were tested against bacteria obtained from the skin surface of an individual. NVX-207 was used either as a cyclodextrin formulation (NVX-207 (at 10 mg/ml final concentration) was formulated in 2-hydroxypropyl-gamma-cyclodextrin (at 150 mg/ml final concentration) in water) (FIG. 6A), or a Tween 80/Ethanol formulation (described in Example 2) (FIG. 6B). Filter disks 1 to 4 were soaked in 10 μl of 10.0, 5.0, 2.5, and 1.25 mg/ml of NVX-207, respectively, and placed on LB-agar plates (total volume of 15 ml LB-agar per plate) on which a skin bacterial isolate had been plated at low density. Control disks placed in the center of the plates were soaked in 10 μl of the corresponding solvent. LB-Agar plates were then cultivated over night at 30° C. and bacterial growth was examined after 18 hours. […]

Mammary carcinoma = experiment: Intratumoral treatment of canine cancer patient, mammary carcinoma; assay type: in vivo, dog; conditions: Patient #3, NVX-207 alone 10 mg/ml in 2-hydroxypropyl-γ-cyclodextrin
Procedure: as §3, §4

[4] = tested on: human hyperkeratotic lesion with an inflammatory component; experiment: Topical treatment of human hyperkeratotic lesion; assay type: in vivo; conditions: 1% topical solution
[5] = tested on: human umbilical vein endothelial cells (HUVEC); experiment: Survival of endothelial cell cultures at 80% and 30% confluency; assay type: cell-based; conditions: 2.5 μM
Procedure: as §1, §2

C=C(C)[C@@H]1CC[C@]2(C(=O)OCC(N)(CO)CO)CC[C@]3(C)[C@H](CC[C@@H]4[C@@]5(C)CC[C@H](OC(C)=O)C(C)(C)[C@@H]5CC[C@]43C)[C@@H]12 [NVX-207, 3-O-acetylbetulinic acid-2-amino-3-hydroxy-2-hydroxymethylpropyl ester]
treatment-related inflammation (canine cancer patients): completely prevented | more active against proliferating human fibroblasts (human fibroblasts): over 20 fold | macroscopic skin irritations (pig skin): No macroscopic NVX-207 related skin irritations | OS, overall survival time (Soft tissue sarcoma): 15 months | Tumor response (Soft tissue sarcoma; NVX-207 alone 10 mg/ml in 2-hydroxypropyl-γ-cyclodextrin, intratumoral): PR (PR, partial remission) | more active against proliferating keratinocytes (human keratinocytes): ~6 fold | Tumor response [1]: SD (SD, stable disease) | reduction of lesion ([2]; 1% topical solution every second to third day, after 3 weeks): about 90% | inflammation or infection at the treatment site ([2]; dog, in vivo): absence of inflammation or infection | estimated concentration at which strong inhibitory effects were seen ([3]; Tween/Ethanol formulation, assumed distribution volume ~2.5 ml): 1 µg/mL and 1.0 µg/mL | final concentration at which growth inhibition was seen ([3]; cyclodextrin formulation, distribution volume approximately 1 ml): ~100 µg/mL | Tumor response (Mammary carcinoma): SD (SD, stable disease) | side effects on treated skin [4]: No deleterious (toxic) effects; also recorded: no reddening, inflammation or any side effects | reduction of lesion ([4]; next day after only one treatment): > 80% | more effective in sub-confluent (30%) than nearly confluent (80%) endothelial cells [5]: ~5 fold
